Laboratory results taken from ChEMBL document CHEMBL1201862, “PubChem BioAssay data set” (2004).
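Tested at 5 concentrations; 48 h exposure; 96-well plates; endpoints linearly interpolated, else capped at highest concentration. Here, GI50 denotes the concentration required for 50% inhibition of growth.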 Active and inactive are the calls of the source. Cut-off read from the data, not from the text of the source: active = GI50 up to about 1.1 µM and inactive = higher.

Legend:
Assay in all cases: NCI tumour cell line growth inhibition, 48 h
Malme-3M = system: Malme-3M
OVCAR-3 = system: OVCAR-3
HOP-92 = system: HOP-92
OVCAR-5 = system: OVCAR-5
RXF 393 = system: RXF 393
NCI-H522 = system: NCI-H522
SNB-75 = system: SNB-75
HCC 2998 = system: HCC 2998
NCI/ADR-RES = system: NCI/ADR-RES
SN12C = system: SN12C
ACHN = system: ACHN
K562 = system: K562
SK-MEL-28 = system: SK-MEL-28
UACC-257 = system: UACC-257
KM12 = system: KM12
IGROV-1 = system: IGROV-1
SF-539 = system: SF-539
HCT-15 = system: HCT-15
SNB-19 = system: SNB-19
SK-OV-3 = system: SK-OV-3

SMILES | GI50 (Malme-3M) | GI50 (OVCAR-3) | GI50 (HOP-92) | GI50 (OVCAR-5) | GI50 (RXF 393) | GI50 (NCI-H522) | GI50 (SNB-75) | GI50 (HCC 2998) | GI50 (NCI/ADR-RES) | GI50 (SN12C) | GI50 (ACHN) | GI50 (K562) | GI50 (SK-MEL-28) | GI50 (UACC-257) | GI50 (KM12) | GI50 (IGROV-1) | GI50 (SF-539) | GI50 (HCT-15) [µM] | GI50 (SNB-19) | GI50 (SK-OV-3)
O=c1[nH]nc(Cc2ccccc2)n1/N=C/c1ccc([N+](=O)[O-])cc1 | > 100 µM (inactive) | > 100 µM (inactive) | > 100 µM (inactive) | > 100 µM (inactive) | > 100 µM (inactive) | > 100 µM (inactive) | 42 µM (inactive) | > 100 µM (inactive) | > 100 µM (inactive) | > 100 µM (inactive) | > 100 µM (inactive) | > 100 µM (inactive) | > 100 µM (inactive) | > 100 µM (inactive) | > 100 µM (inactive) | > 100 µM (inactive) | > 100 µM (inactive) | > 100 |  | 
CC(=C(C(N)=O)C(N)=O)C1C=C(c2cccs2)CC(c2ccc(Cl)cc2)=C1O (stereo unspecified) |  | 22.3 µM (inactive) | 85.9 µM (inactive) | > 100 µM (inactive) | > 100 µM (inactive) | 30.3 µM (inactive) | 90.6 µM (inactive) | 34 µM (inactive) | 44.9 µM (inactive) | 32 µM (inactive) | 52.5 µM (inactive) | 25 µM (inactive) | > 100 µM (inactive) | 14.5 µM (inactive) | 34.7 µM (inactive) | 35 µM (inactive) |  | 20.9 | 77.8 µM (inactive) | > 100 µM (inactive)
CC1(C)CCCOc2cccc(c2)OCCCC(C)(C)C1=O | 27.6 µM (inactive) | 22 µM (inactive) | 23 µM (inactive) | > 100 µM (inactive) | 17.7 µM (inactive) | 13.3 µM (inactive) | 30.8 µM (inactive) |  | 38.3 µM (inactive) | 45.3 µM (inactive) | 36.8 µM (inactive) | 14.8 µM (inactive) | 38.5 µM (inactive) |  | 26 µM (inactive) | 39.2 µM (inactive) | 86.5 µM (inactive) | 35.5 | 80.7 µM (inactive) | 33 µM (inactive)
CCCCCC(=O)OCC1(CO)C/C(=C\CC(C(C)C)C(C)C)C(=O)O1 (stereo unspecified) | 15.3 µM (inactive) | > 100 µM (inactive) | 93.3 µM (inactive) | > 100 µM (inactive) | > 100 µM (inactive) | 21.9 µM (inactive) | 44.4 µM (inactive) | > 100 µM (inactive) | 87.5 µM (inactive) | 31.6 µM (inactive) | > 100 µM (inactive) | 24.1 µM (inactive) | 59.3 µM (inactive) | > 100 µM (inactive) | 39.6 µM (inactive) | 65.8 µM (inactive) |  | 75.2 | > 100 µM (inactive) | > 100 µM (inactive)
COc1ccc(CC2Cc3ccccc3CCN2)cc1OC (stereo unspecified) | 25.5 µM (inactive) | > 50 µM (inactive) | 17.9 µM (inactive) | 38.2 µM (inactive) | 12 µM (inactive) |  | 31.1 µM (inactive) | > 50 µM (inactive) | > 50 µM (inactive) | > 50 µM (inactive) |  | 20 µM (inactive) | 19.3 µM (inactive) | 21.6 µM (inactive) | > 50 µM (inactive) | 23.9 µM (inactive) | 37.8 µM (inactive) | > 50 | > 50 µM (inactive) | > 50 µM (inactive)
CCN1CCCCCCCCCC(=N/O)/C(=N\O)C1 | > 100 µM (inactive) | > 100 µM (inactive) | > 100 µM (inactive) | > 100 µM (inactive) | > 100 µM (inactive) | > 100 µM (inactive) | > 100 µM (inactive) |  | > 100 µM (inactive) | > 100 µM (inactive) | > 100 µM (inactive) | > 100 µM (inactive) | > 100 µM (inactive) | > 100 µM (inactive) | > 100 µM (inactive) | > 100 µM (inactive) | > 100 µM (inactive) | > 100 | > 100 µM (inactive) | 
COc1ccc(C2=NN(C(=O)c3cccnc3)C(O)(c3cc(F)c(Cl)cc3Cl)C2)cc1OC (stereo unspecified) | 22.6 µM (inactive) | 11.5 µM (inactive) | 14.1 µM (inactive) | 30.2 µM (inactive) | 15.5 µM (inactive) | 13.8 µM (inactive) | 23.5 µM (inactive) |  | 14.8 µM (inactive) | 15.3 µM (inactive) | 21.3 µM (inactive) | 17.4 µM (inactive) | 19.5 µM (inactive) | 13.6 µM (inactive) | 19.1 µM (inactive) | 8.11 µM (inactive) | 16.1 µM (inactive) | 14.8 | 29.9 µM (inactive) | 26.1 µM (inactive)
COC(=O)C1(C)OC(C)=NC1(C(=O)OC)C(=O)OC (stereo unspecified) | > 100 µM (inactive) | > 100 µM (inactive) | 1.45 µM (inactive) | > 100 µM (inactive) | > 100 µM (inactive) |  | > 100 µM (inactive) | > 100 µM (inactive) | > 100 µM (inactive) | > 100 µM (inactive) | > 100 µM (inactive) | > 100 µM (inactive) | > 100 µM (inactive) | > 100 µM (inactive) | > 100 µM (inactive) | > 100 µM (inactive) | > 100 µM (inactive) | > 100 | > 100 µM (inactive) | > 100 µM (inactive)
CC1CCCN1CCCOC(=O)c1ccc(OC2C=CCCC2)cc1 (stereo unspecified) | 18.9 µM (inactive) | 39.2 µM (inactive) |  | 71.9 µM (inactive) | 26.7 µM (inactive) | 20.9 µM (inactive) | 7.74 µM (inactive) | 28.6 µM (inactive) | 48.3 µM (inactive) | 39.4 µM (inactive) | 33.5 µM (inactive) | 18.9 µM (inactive) | 54.7 µM (inactive) | 60.8 µM (inactive) | 38.2 µM (inactive) | 21.4 µM (inactive) | 25.6 µM (inactive) | 23.3 | 38.2 µM (inactive) | 56.1 µM (inactive)
COc1ccc(C(=O)Oc2c(C#N)sc3c2c(=O)n(-c2ccccc2)c(=S)n3-c2ccccc2)cc1 |  | 20.3 µM (inactive) | 23.6 µM (inactive) | 26.4 µM (inactive) | 21.8 µM (inactive) | 0.131 µM (active) | > 100 µM (inactive) | 27.9 µM (inactive) | 20.6 µM (inactive) | 23.5 µM (inactive) | 40.7 µM (inactive) | 30.3 µM (inactive) | 53.6 µM (inactive) | 47.5 µM (inactive) | 18.5 µM (inactive) | 19.6 µM (inactive) | 21.6 µM (inactive) | 16.7 | 33.2 µM (inactive) | 33.9 µM (inactive)
CC[C@@]1(N(C)C)C(=O)OCc2c1cc1n(c2=O)Cc2cc3ccccc3nc2-1 | 20.2 µM (inactive) | 27.8 µM (inactive) | 19.1 µM (inactive) | > 100 µM (inactive) | 13.7 µM (inactive) | 12.7 µM (inactive) | 12.8 µM (inactive) | 97.7 µM (inactive) | 21.3 µM (inactive) |  | 20.3 µM (inactive) | > 100 µM (inactive) | > 100 µM (inactive) | > 100 µM (inactive) | > 100 µM (inactive) |  |  | 45.3 | 29.4 µM (inactive) | 18.7 µM (inactive)
NC(=O)C(=O)c1ncn(Cc2ccccc2)c1N | > 100 µM (inactive) | > 100 µM (inactive) |  | > 100 µM (inactive) | > 100 µM (inactive) | > 100 µM (inactive) | > 100 µM (inactive) | > 100 µM (inactive) | > 100 µM (inactive) | > 100 µM (inactive) | > 100 µM (inactive) | > 100 µM (inactive) | > 100 µM (inactive) | > 100 µM (inactive) | > 100 µM (inactive) | > 100 µM (inactive) | > 100 µM (inactive) | > 100 | > 100 µM (inactive) | > 100 µM (inactive)
CC(=O)/C(=C/N1CCNC1=S)C(=O)Nc1ccccc1C |  | > 100 µM (inactive) | > 100 µM (inactive) | > 100 µM (inactive) | > 100 µM (inactive) | > 100 µM (inactive) | > 100 µM (inactive) | > 100 µM (inactive) | > 100 µM (inactive) | > 100 µM (inactive) | > 100 µM (inactive) | > 100 µM (inactive) | > 100 µM (inactive) | > 100 µM (inactive) | > 100 µM (inactive) | > 100 µM (inactive) | > 100 µM (inactive) | > 100 | > 100 µM (inactive) | > 100 µM (inactive)
CCN(CC)Cc1sc2nc3ccccc3n2c1-c1ccc(OC)cc1 | 17.2 µM (inactive) | 21.3 µM (inactive) | 27.8 µM (inactive) | 76 µM (inactive) | 26.2 µM (inactive) | 4.11 µM (inactive) | 33.8 µM (inactive) | 45.6 µM (inactive) | 15 µM (inactive) |  | 45.1 µM (inactive) | 3.22 µM (inactive) | 22.7 µM (inactive) | > 100 µM (inactive) | 20.6 µM (inactive) | 25.5 µM (inactive) |  | 12.6 | 27.1 µM (inactive) | 27 µM (inactive)
c1ccc2c(CSCc3cccc4ccccc34)cccc2c1 | 58.9 µM (inactive) | > 100 µM (inactive) | > 100 µM (inactive) | > 100 µM (inactive) | > 100 µM (inactive) | 99.3 µM (inactive) | > 100 µM (inactive) | 50.8 µM (inactive) | > 100 µM (inactive) | > 100 µM (inactive) | > 100 µM (inactive) | 76.7 µM (inactive) | > 100 µM (inactive) | 52.7 µM (inactive) | > 100 µM (inactive) | 38.5 µM (inactive) |  | 1.91 | > 100 µM (inactive) | 
